Common to all, as to type: cell-based, human
One series relates to MCF-7 breast. As to the kind of experiment: MTT growth inhibition assay, MCF-7. Conditions: Homo sapiens, MCF7; MTT assay, 72 h. For orientation: Tetrazolium assays rely on reduction of a dye to a coloured formazan, in cell work by metabolically active cells.
For the next series, the system named is H460 lung. As to the kind of experiment: MTT growth inhibition assay, H460. Conditions: Homo sapiens, NCI-H460, 72 h.
The next series has as its system Du145 prostate. As to the kind of experiment: MTT growth inhibition assay, Du145. Conditions: Homo sapiens, DU-145; MTT assay, 72 h.
A further series deals with MIA pancreas. The series can be described thus: MTT growth inhibition assay, MIA. The following applies: Homo sapiens, 72 h.
Series [1] has as its system non-tumour derived MCF10A breast line. The series can be described thus: MTT growth inhibition assay, MCF10A. Conditions: Homo sapiens, MCF-10A, 72 h.
The next series has as its system A2780 ovarian. The series can be described thus: MTT growth inhibition assay, A2780. The following applies: Homo sapiens, A2780, 72 h.
The subject of another series is U87 glioblastoma. The series can be described thus: MTT growth inhibition assay, U87. The following applies: Homo sapiens, 72 h.
In another series the test system is SJ-G2 glioblastoma. As to the kind of experiment: MTT growth inhibition assay, SJ-G2. Conditions: Homo sapiens, SJ-G2, 72 h.
In another series the test system is HT29 colon cells. The series can be described thus: ROS detection assay (DCFH-DA). Conditions: for ROS production relative to the control: HT29 colon cells, 24, 48 and 72 h; for ROS production 24 h / ROS production 48 h / ROS production 72 h: HT29 colon cells, treated at GI50 concentration (TBHP positive control 20 μM). From the text: Although ROS is required for cancer cell function and progression, it can induce programmed cell death or apoptosis. […] In this study, we report the ROS activity of the studied platinum(IV) complexes, 1–8, together with the individual axial ligands (4-CPA, 4-FPA, 4-BPA, and 4-IPA) in the human cancer cell line, HT29 colon (Figure 19, Table 8, and Figure S95). The ROS potential of their platinum(II) and platinum(IV) precursors in the same cell line is also presented for comparison purposes (Table 8). […] HT29 colon cells were stained by DCFH-DA and then treated with the complexes at each specific GI50 concentration. Upon ROS production, the DCFH-DA produced dichlorodihydrofluorescein, a fluorescent product. The measured fluorescence was, therefore, proportional to the produced ROS.
To investigate the presence of ROS in treated cells, a DCFDA/H2DCFDA-cellular ROS Assay Kit (Abcam, Cambridge, MA, USA) was used, as previously described. A total of 25,000 cells/mL of HT29 cells in DMEM were seeded in 96-well plates. Cells were washed with 1X kit buffer, and then stained with 25 μM 2′,7′-dichlorofluorescein diacetate (DCFH-DA) and incubated for 45 min. DCFH-DA was then removed, and cells were then re-washed with 1X kit buffer, after which phenol red free media was added. Cells were then treated with a GI50 drug concentration for each complex. The plates were directly scanned to measure fluorescence (relative fluorescence units (RFU)) at different time points using the Glo-Max®-Multimode microplate reader (Promega Corporation, Alexandra, VIC, Australia) at an excitation/emission of 485/535 nm. To generate the positive control (20 μM tert-butyl hydroperoxide (TBHP)), cells were washed with 1X kit buffer, and stained with DCFDA (25 μM) for 45 min; this was removed and TBHP was added in phenol red free media, and the resulting solution was scanned as described above.

Series [2] concerns ADDP-resistant ovarian variant. The series can be described thus: MTT growth inhibition assay, ADDP. Conditions: Homo sapiens; MTT assay, 72 h.
For a further series, the system named is HT29 colon. The series can be described thus: MTT growth inhibition assay, HT29. Conditions: Homo sapiens, HT-29; MTT assay, 72 h.
Another series deals with BE2-C neuroblastoma. The series can be described thus: MTT growth inhibition assay, BE2-C. Conditions: Homo sapiens, BE(2)-C, 72 h.
A further series relates to A431 skin. As to the kind of experiment: MTT growth inhibition assay, A431. Conditions: Homo sapiens, A-431, 72 h.
The subject of a further series is panel of cell lines. The series can be described thus: MTT growth inhibition assay, whole panel of cell lines. Conditions: 72 h; for GI50: Homo sapiens, average over the cell lines tested, MTT assay; for cytotoxicity: panel of cell lines, MTT.

Usually GI50 stands for the concentration that inhibits growth by half. Higher therefore signals lower sensitivity of the cells. In the case of `O=C(O)Cc1ccc(Br)cc1` [Complex 4-BPA, 4-bromophenylacetic acid], the GI50 (with MCF-7 breast; with H460 lung; with Du145 prostate; in the series with MIA pancreas; in series [1]; in the series on A2780 ovarian) was over 50 µM each time. For the same compound, the GI50 (in the series on U87 glioblastoma; with SJ-G2 glioblastoma; in series [2]; with HT29 colon; in the series on BE2-C neuroblastoma; with A431 skin) was over 50 µM in each case. Also, in the series with panel of cell lines, the GI50 is over 50 µM. Moreover, the “ROS production relative to the control” value with HT29 colon cells is given as “increase in ROS production relative to the control”. In the series with HT29 colon cells, the “ROS production 24 h” value came out at 172 ± 9 RFU. The “ROS production 48 h” value in the series with HT29 colon cells is 198 ± 10 RFU. Further, the “ROS production 72 h” value with HT29 colon cells is listed as 222 ± 13 RFU. The “cytotoxicity” value with panel of cell lines is “did not demonstrate significant cytotoxicity”.

As for `O=C(O)Cc1ccc(Cl)cc1` [Complex 4-CPA, 4-chlorophenylacetic acid], the concentration for 50% growth inhibition (GI50) (with MCF-7 breast; in the series with H460 lung; in the series on Du145 prostate; in the series on MIA pancreas; in [1]; in the series with A2780 ovarian) was over 50 µM in each case. In addition, the GI50 (with U87 glioblastoma; in the series with SJ-G2 glioblastoma; in series [2]; with HT29 colon; in the series with BE2-C neuroblastoma; in the series with A431 skin) was over 50 µM throughout. The compound further came in with a GI50 with panel of cell lines of over 50 µM. The “ROS production relative to the control” value with HT29 colon cells is on record as “increase in ROS production relative to the control”. Besides, in the series with HT29 colon cells, the “ROS production 24 h” value was 167 ± 13.2 RFU. Besides, the “ROS production 48 h” value in the series with HT29 colon cells was 207 ± 14.5 RFU. The “ROS production 72 h” value with HT29 colon cells was determined as 233 ± 10.4 RFU. The “cytotoxicity” value with panel of cell lines was “did not demonstrate significant cytotoxicity”.

On to `O=C(O)Cc1ccc(F)cc1` [Complex 4-FPA, 4-fluorophenylacetic acid], for which the GI50 (in the series with MCF-7 breast; in the series with H460 lung; in the series with Du145 prostate; with MIA pancreas; in [1]; in the series with A2780 ovarian) was over 50 µM throughout. Also, the GI50 (with U87 glioblastoma; in the series with SJ-G2 glioblastoma; in series [2]; with HT29 colon; in the series with BE2-C neuroblastoma; with A431 skin) was over 50 µM each time. In addition, in the series on panel of cell lines, the 50% growth inhibitory concentration (GI50) is over 50 µM. Further, the “ROS production relative to the control” value in the series with HT29 colon cells is recorded as “increase in ROS production relative to the control”. For the same compound, the “ROS production 24 h” value in the series on HT29 colon cells was found to be 197 ± 8 RFU. Further, the “ROS production 48 h” value with HT29 colon cells is recorded as 224 ± 11 RFU. The “ROS production 72 h” value in the series on HT29 colon cells amounted to 236 ± 6 RFU. Moreover, the “cytotoxicity” value in the series on panel of cell lines is reported as “did not demonstrate significant cytotoxicity”.

In the case of `O=C(O)Cc1ccc(I)cc1` [Complex 4-IPA, 4-iodophenylacetic acid], the concentration for 50% growth inhibition (GI50) (in the series on MCF-7 breast; with H460 lung; in the series with Du145 prostate; in the series on MIA pancreas; in series [1]; with A2780 ovarian) was over 50 µM each time. In addition, the GI50 (in the series on U87 glioblastoma; with SJ-G2 glioblastoma; in series [2]; with HT29 colon; in the series with BE2-C neuroblastoma; in the series on A431 skin) was over 50 µM throughout. In the series with panel of cell lines, this compound gave a GI50 of over 50 µM. Besides, in the series on HT29 colon cells, the “ROS production relative to the control” value is “increase in ROS production relative to the control”. The “ROS production 24 h” value with HT29 colon cells is listed as 137 ± 7 RFU. In addition, the “ROS production 48 h” value in the series on HT29 colon cells stood at 182 ± 12 RFU. In addition, the “ROS production 72 h” value in the series on HT29 colon cells was 206 ± 9 RFU. In the series with panel of cell lines, the “cytotoxicity” value is recorded as “did not demonstrate significant cytotoxicity”.

For `CC(C)(C)OO` [TBHP, tert-butyl hydroperoxide], in the series on HT29 colon cells, the “ROS production 24 h” value is reported as 514 ± 3 RFU, the “ROS production 48 h” value stood at 336 ± 2 RFU and the “ROS production 72 h” value is 332 ± 5 RFU.

Source of the values: paper PMC9611758, “Bioactive Platinum(IV) Complexes Incorporating Halogenated Phenylacetates” (Molecules, 2022).
